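Growth conditions: 96-well plates. Treatment: test compound, 48 hours, 5 concentrations. Analysis: linear interpolation between bracketing concentrations; unreached endpoints set to highest concentration. GI50: concentration for 50% inhibition of growth. TGI marks complete inhibition of growth.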
Key:
Assay in all cases: NCI tumour cell line growth inhibition, 48 h
[1] = system: MALME-3M melanoma
[2] = system: MOLT-4 leukemia
[3] = system: K-562 leukemia
[4] = system: NCI-H226 lung
[5] = system: EKVX NSCLC
[6] = system: CAKI-1 renal
[7] = system: BT-549 breast
[8] = system: DU-145 prostate
[9] = system: U251 CNS
[10] = system: HS 578T breast

## CC1NCCc2c1[nH]c1cc(O)ccc21 (configuration not stated)
[1]
  TGI: > 100 µM
[2]
  TGI: > 100 µM
[3]
  TGI: > 100 µM
[4]
  TGI: > 100 µM
[5]
  TGI: > 100 µM
[6]
  TGI: > 100 µM

## CN(N=O)C(=O)Nc1ccc(C(=O)O)cc1
[7]
  TGI: > 100 µM
[2]
  TGI: > 100 µM
[8]
  TGI: > 100 µM
[3]
  TGI: > 100 µM
[9]
  TGI: > 100 µM
[4]
  TGI: > 100 µM
[5]
  TGI: > 100 µM
[10]
  TGI: > 100 µM
[6]
  TGI: > 100 µM

## COc1cc(/C=C2\NC(=S)C3Cc4c(OC)c(C)c(OC)c(OC)c4C2N3C)c(OC)c(C)c1OC (configuration not stated)
[1]
  TGI: > 100 µM
[2]
  TGI: > 100 µM
[3]
  TGI: > 100 µM
[9]
  TGI: > 100 µM
[4]
  TGI: > 100 µM
[5]
  TGI: > 100 µM
[6]
  TGI: > 100 µM

## CC(=O)OCC1OC(n2c(=S)n(-c3ccccc3)c(=O)c3cc(Br)ccc32)C(OC(C)=O)C(OC(C)=O)C1OC(C)=O (configuration not stated)
[1]
  GI50: > 100 µM
  TGI: > 100 µM
[2]
  TGI: > 100 µM
[3]
  TGI: > 100 µM
[9]
  TGI: > 100 µM
[4]
  TGI: > 100 µM
[5]
  TGI: > 100 µM
[6]
  TGI: > 100 µM

## C=C(CN(C)Cc1ccccc1)c1ccc(C(=O)Nc2ccccc2N)cc1
[7]
  GI50: 1.48 µM
  TGI: 10.1 µM
[8]
  GI50: 1.64 µM
  TGI: 11.9 µM
[3]
  GI50: 3.22 µM
  TGI: > 50 µM
[9]
  GI50: 3.34 µM
  TGI: 13.8 µM
[5]
  GI50: 8.17 µM
  TGI: 37.9 µM
[10]
  GI50: 3.66 µM
  TGI: 33.6 µM
[6]
  GI50: 3.43 µM
  TGI: 14.8 µM

## CCOC(=O)C1=C(C)N(NC(=O)OC)C2(N)N(NC(=O)OC)C(C)=C(C(=O)OCC)C12C#N (configuration not stated)
[1]
  TGI: > 100 µM
[2]
  TGI: > 100 µM
[3]
  TGI: > 100 µM
[9]
  TGI: > 100 µM
[4]
  TGI: > 100 µM
[5]
  TGI: > 100 µM
[6]
  TGI: > 100 µM

## Cc1cccc2c(N=Nc3ccccc3[N+](=O)[O-])c(O)[nH]c12
[7]
  TGI: > 74.1 µM
[2]
  TGI: > 100 µM
[8]
  TGI: > 100 µM
[3]
  TGI: > 100 µM
[9]
  TGI: 7.68 µM
[4]
  TGI: > 39.7 µM
[5]
  TGI: 33.6 µM
[10]
  TGI: 16.4 µM
[6]
  TGI: 16.3 µM

## Cc1cc(S(=O)(=O)Nc2nc3ccccc3[nH]2)c(SCc2ccccc2)cc1Cl
[7]
  GI50: > 100 µM
  TGI: > 100 µM
[2]
  GI50: 36.4 µM
  TGI: 85.6 µM
[8]
  GI50: > 100 µM
  TGI: > 100 µM
[3]
  GI50: 66.3 µM
  TGI: > 100 µM
[9]
  GI50: 14.9 µM
  TGI: 50.7 µM
[4]
  GI50: 43.8 µM
  TGI: > 100 µM
[5]
  GI50: > 100 µM
  TGI: > 100 µM
[10]
  GI50: 78.1 µM
  TGI: > 100 µM
[6]
  GI50: 2.1 µM
  TGI: 6.1 µM

## CC1(C)Cc2nnsc2C2=C1C(=O)CCS2
[1]
  TGI: > 100 µM
[2]
  TGI: > 100 µM
[3]
  TGI: > 100 µM
[9]
  TGI: > 100 µM
[5]
  TGI: > 100 µM
[6]
  TGI: > 100 µM

## O=C1[C@@H]2C(c3ccncc3)=NO[C@@H]2C(=O)N1c1ccc(Cc2ccc(N3C(=O)[C@H]4C(c5ccncc5)=NO[C@H]4C3=O)cc2)cc1
[1]
  TGI: > 100 µM
[2]
  TGI: > 100 µM
[3]
  TGI: > 100 µM
[9]
  TGI: > 100 µM
[4]
  TGI: > 100 µM
[5]
  TGI: > 100 µM
[6]
  TGI: > 100 µM

## Cc1nc2ccccc2c(/C=C/c2ccccc2)c1C(=O)/C=C/c1ccc(Cl)cc1
[2]
  GI50: 1.09 µM
  TGI: 6.49 µM
[3]
  GI50: 0.868 µM
  TGI: 4.87 µM
[9]
  GI50: 1.51 µM
  TGI: 2.88 µM

— PubChem BioAssay (NCI)
